{
  "source": "the supplement of paper PMC10307832",
  "assay_in_all_cases": "relative viability (nuclei count vs DMSO), 5 days (fraction); higher = more cells survive",
  "key": {"[1]": {"compound": "Cc1cnc(CNC(=O)c2c(=O)c3ccc(N4CCCN(C)CC4)nc3n3c2sc2ccccc23)cn1 [CX-5461] + O=C(c1cc(Cc2n[nH]c(=O)c3ccccc23)ccc1F)N1CCN(C(=O)C2CC2)CC1 [Olaparib] (partner 8 µM)", "summary_of_the_method": "(§1)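 The day after seeding in 1536-well plates, lung cancer cell lines were treated by pin tool with a single drug, or with a fixed anchor-drug dose together with five library-drug doses (not always all listed) in √10 steps. After 5 days, a combined fix-and-stain solution (final 0.05% Triton X-100, 1% formaldehyde, 1 ug/ml Hoechst) was added. Nuclei counted on 4× images gave relative viability as treated counts over vehicle counts, reported as the median of duplicate plates.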"}, "[2]": {"compound": "Cc1cnc(CNC(=O)c2c(=O)c3ccc(N4CCCN(C)CC4)nc3n3c2sc2ccccc23)cn1 [CX-5461] + CCNC(=O)c1noc(-c2cc(C(C)C)c(O)cc2O)c1-c1ccc(CN2CCOCC2)cc1 [Luminespib] (partner 0.01 µM)", "summary_of_the_method": "as §1"}, "[3]": {"compound": "O=C(Nc1cc(C(F)(F)F)cc(C(F)(F)F)c1)c1cc(Cl)ccc1O [IMD-0354] + C[C@@H](Oc1cc(-c2cnn(C3CCNCC3)c2)cnc1N)c1c(Cl)ccc(F)c1Cl [Crizotinib] (partner 1 µM)", "summary_of_the_method": "as §1"}, "[4]": {"compound": "Cc1cnc(CNC(=O)c2c(=O)c3ccc(N4CCCN(C)CC4)nc3n3c2sc2ccccc23)cn1 [CX-5461] + CC(C)C[C@H](NC(=O)[C@H](Cc1ccccc1)NC(=O)c1cnccn1)B(O)O [Bortezomib] (partner 0.002 µM)", "summary_of_the_method": "as §1"}},
  "data": [
    {"cell line": "UMC-11", "values": [
      {"measurement": "relative viability", "setting": "[1]; first compound 0.01 µM", "result": 0.323},
      {"measurement": "relative viability", "setting": "[1]; first compound 0.03162 µM", "result": 0.369},
      {"measurement": "relative viability", "setting": "[1]; first compound 0.1 µM", "result": 0.321},
      {"measurement": "relative viability", "setting": "[1]; first compound 0.3162 µM", "result": 0.395},
      {"measurement": "relative viability", "setting": "[1]; first compound 1 µM", "result": 0.267},
      {"measurement": "relative viability", "setting": "[2]; first compound 0.01 µM", "result": 1.01},
      {"measurement": "relative viability", "setting": "[2]; first compound 0.03162 µM", "result": 0.931},
      {"measurement": "relative viability", "setting": "[2]; first compound 0.1 µM", "result": 0.965},
      {"measurement": "relative viability", "setting": "[2]; first compound 0.3162 µM", "result": 0.951},
      {"measurement": "relative viability", "setting": "[2]; first compound 1 µM", "result": 0.423},
      {"measurement": "relative viability", "setting": "[3]; first compound 0.04 µM", "result": 0.701},
      {"measurement": "relative viability", "setting": "[3]; first compound 0.1265 µM", "result": 0.578},
      {"measurement": "relative viability", "setting": "[3]; first compound 0.4 µM", "result": 0.432},
      {"measurement": "relative viability", "setting": "[3]; first compound 1.265 µM", "result": 0.263},
      {"measurement": "relative viability", "setting": "[3]; first compound 4 µM", "result": 0.267},
      {"measurement": "relative viability", "setting": "[4]; first compound 0.01 µM", "result": 1.01},
      {"measurement": "relative viability", "setting": "[4]; first compound 0.03162 µM", "result": 0.707},
      {"measurement": "relative viability", "setting": "[4]; first compound 0.1 µM", "result": 0.514},
      {"measurement": "relative viability", "setting": "[4]; first compound 0.3162 µM", "result": 0.797},
      {"measurement": "relative viability", "setting": "[4]; first compound 1 µM", "result": 0.198}
    ]}
  ]
}
